Laboratory results reported in ChEMBL document CHEMBL3885881, “DrugMatrix”.
Positions of bridges follow the written chain, without caps; N, C: chain ends. Non-standard residues stand in square brackets, D forms with d. Residues, ends and D or L forms follow the SMILES beside them. *: point of attachment. Ileψ(thiazoline)Cys = CC[C@H](C)[C@H](N)C1=N[C@H](C(=O)*)CS1; dOrn = NCCC[C@@H](N)C(=O)O

Species on record: Rattus norvegicus
Test: DrugMatrix - Regimen: Daily Repeat
Format: toxicity, organism-based, Sprague-Dawley
Design: regimen Daily Repeat, gender Male, age 6-8 weeks
Conditions: in vivo, sc, […], route subcutaneous, dose 7.6 mg/Kg, dose level Low; for ABSOLUTE BASOPHIL / ABSOLUTE EOSINOPHIL / ABSOLUTE LYMPHOCYTE / ABSOLUTE MONOCYTE / ABSOLUTE SEGMENTED NEUTROPHIL / BASOPHIL / EOSINOPHIL / ERYTHROCYTE COUNT / HEMATOCRIT / HEMOGLOBIN / LEUKOCYTE COUNT / LYMPHOCYTE / MEAN CORPUSCULAR HEMOGLOBIN / MEAN CORPUSCULAR HEMOGLOBIN CONCENTRATION / MEAN CORPUSCULAR VOLUME / MONOCYTE / NEUTROPHIL / NUCLEATED RED BLOOD CELLS / PLATELET COUNT: tissue Blood; for ALANINE AMINOTRANSFERASE / ALBUMIN / ALKALINE PHOSPHATASE / ASPARTATE AMINOTRANSFERASE / BLOOD UREA NITROGEN / CARBON DIOXIDE / CHLORIDE / CHOLESTEROL / CREATINE PHOSPHOKINASE / CREATININE / GLUCOSE / LACTATE DEHYDROGENASE / LIPASE / PHOSPHORUS / POTASSIUM / SODIUM / TOTAL BILIRUBIN / TOTAL PROTEIN / URIC ACID: tissue Plasma

Q: For CC[C@H](C)[C@H](N)C1=N[C@H](C(=O)N[C@@H](CC(C)C)C(=O)N[C@H](CCC(=O)O)C(=O)N[C@H](C(=O)N[C@H]2CCCCNC(=O)[C@H](CC(N)=O)NC(=O)[C@@H](CC(=O)O)NC(=O)[C@H](Cc3cnc[nH]3)NC(=O)[C@@H](Cc3ccccc3)NC(=O)[C@H]([C@@H](C)CC)NC(=O)[C@@H](CCCN)NC2=O)[C@@H](C)CC)CS1 [BACITRACIN] ({Ileψ(thiazoline)Cys}-L[dE]IK[dOrn]I[dF]H[dD]N; lactam 4-C), which “ABSOLUTE BASOPHIL” value (72 h, time 3 day) is on record?
A: 0 CELLS/uL

Q: What about the “ABSOLUTE EOSINOPHIL” value (72 h, time 3 day) of the same compound?
A: 0 CELLS/uL

Q: And the “ABSOLUTE LYMPHOCYTE” value (72 h, time 3 day)?
A: 8685.33 CELLS/uL

Q: And the “ABSOLUTE MONOCYTE” value (72 h, time 3 day)?
A: 135 CELLS/uL

Q: And the “ABSOLUTE SEGMENTED NEUTROPHIL” value (72 h, time 3 day)?
A: 1146.33 CELLS/uL

Q: What about the BASOPHIL (72 h, time 3 day) of the same compound?
A: 0%

Q: What about the EOSINOPHIL (72 h, time 3 day) of the same compound?
A: 0%

Q: And the “ERYTHROCYTE COUNT” value (72 h, time 3 day)?
A: 6.24 x10E6/uL

Q: What about the HEMATOCRIT (72 h, time 3 day) of the same compound?
A: 39.37%

Q: And the HEMOGLOBIN (72 h, time 3 day)?
A: 15.53 G/DL

Q: What about the “LEUKOCYTE COUNT” value (72 h, time 3 day) of the same compound?
A: 9.97 x10E3/uL

Q: And the LYMPHOCYTE (72 h, time 3 day)?
A: 87.33%

Q: And the “MEAN CORPUSCULAR HEMOGLOBIN” value (72 h, time 3 day)?
A: 24.9 pg

Q: What about the “MEAN CORPUSCULAR HEMOGLOBIN CONCENTRATION” value (72 h, time 3 day) of the same compound?
A: 39.47 G/DL

Q: What about the “MEAN CORPUSCULAR VOLUME” value (72 h, time 3 day) of the same compound?
A: 63.13 fL

Q: And the MONOCYTE (72 h, time 3 day)?
A: 1.33%

Q: What about the NEUTROPHIL (72 h, time 3 day) of the same compound?
A: 11.33%

Q: And the “NUCLEATED RED BLOOD CELLS” value (72 h, time 3 day)?
A: 0 /100WBC

Q: And the “PLATELET COUNT” value (72 h, time 3 day)?
A: 1341.67 x10E3/uL

Q: What about the “ALANINE AMINOTRANSFERASE” value (72 h, time 3 day) of the same compound?
A: 22.67 u/L

Q: And the ALBUMIN (72 h, time 3 day)?
A: 4.77 G/DL

Q: What about the “ALKALINE PHOSPHATASE” value (72 h, time 3 day) of the same compound?
A: 372.67 u/L

Q: And the “ASPARTATE AMINOTRANSFERASE” value (72 h, time 3 day)?
A: 95 u/L

Q: What about the “BLOOD UREA NITROGEN” value (72 h, time 3 day) of the same compound?
A: 17.33 mg/dL

Q: What about the “CARBON DIOXIDE” value (72 h, time 3 day) of the same compound?
A: 22 mmol/L

Q: And the CHLORIDE (72 h, time 3 day)?
A: 105.67 MEQ/L

Q: What about the CHOLESTEROL (72 h, time 3 day) of the same compound?
A: 79.33 mg/dL

Q: And the “CREATINE PHOSPHOKINASE” value (72 h, time 3 day)?
A: 677 u/L

Q: What about the CREATININE (72 h, time 3 day) of the same compound?
A: 0.21 mg/dL

Q: And the GLUCOSE (72 h, time 3 day)?
A: 182 mg/dL

Q: And the “LACTATE DEHYDROGENASE” value (72 h, time 3 day)?
A: 728.67 u/L

Q: What about the LIPASE (72 h, time 3 day) of the same compound?
A: 9 u/L

Q: And the PHOSPHORUS (72 h, time 3 day)?
A: 14.07 mg/dL

Q: What about the POTASSIUM (72 h, time 3 day) of the same compound?
A: 6.5 MEQ/L

Q: What about the SODIUM (72 h, time 3 day) of the same compound?
A: 151.33 MEQ/L

Q: What about the “TOTAL BILIRUBIN” value (72 h, time 3 day) of the same compound?
A: 0.2 mg/dL

Q: And the “TOTAL PROTEIN” value (72 h, time 3 day)?
A: 6.97 G/DL

Q: What about the “URIC ACID” value (72 h, time 3 day) of the same compound?
A: 2.53 mg/dL

Q: What about the “ABSOLUTE BASOPHIL” value (120 h, time 5 day) of the same compound?
A: 0 CELLS/uL

Q: What about the “ABSOLUTE EOSINOPHIL” value (120 h, time 5 day) of the same compound?
A: 40 CELLS/uL

Q: What about the “ABSOLUTE LYMPHOCYTE” value (120 h, time 5 day) of the same compound?
A: 10682 CELLS/uL

Q: And the “ABSOLUTE MONOCYTE” value (120 h, time 5 day)?
A: 80 CELLS/uL

Q: What about the “ABSOLUTE SEGMENTED NEUTROPHIL” value (120 h, time 5 day) of the same compound?
A: 864.67 CELLS/uL

Q: What about the BASOPHIL (120 h, time 5 day) of the same compound?
A: 0%

Q: And the EOSINOPHIL (120 h, time 5 day)?
A: 0.33%

Q: And the “ERYTHROCYTE COUNT” value (120 h, time 5 day)?
A: 4.88 x10E6/uL

Q: And the HEMATOCRIT (120 h, time 5 day)?
A: 31.97%

Q: And the HEMOGLOBIN (120 h, time 5 day)?
A: 12.4 G/DL

Q: What about the “LEUKOCYTE COUNT” value (120 h, time 5 day) of the same compound?
A: 11.67 x10E3/uL

Q: What about the LYMPHOCYTE (120 h, time 5 day) of the same compound?
A: 90.67%

Q: And the “MEAN CORPUSCULAR HEMOGLOBIN” value (120 h, time 5 day)?
A: 25.37 pg

Q: What about the “MEAN CORPUSCULAR HEMOGLOBIN CONCENTRATION” value (120 h, time 5 day) of the same compound?
A: 38.97 G/DL

Q: What about the “MEAN CORPUSCULAR VOLUME” value (120 h, time 5 day) of the same compound?
A: 65.07 fL

Q: What about the MONOCYTE (120 h, time 5 day) of the same compound?
A: 0.67%

Q: And the NEUTROPHIL (120 h, time 5 day)?
A: 8.33%

Q: And the “NUCLEATED RED BLOOD CELLS” value (120 h, time 5 day)?
A: 0.67 /100WBC

Q: What about the “PLATELET COUNT” value (120 h, time 5 day) of the same compound?
A: 938.67 x10E3/uL

Q: What about the “ALANINE AMINOTRANSFERASE” value (120 h, time 5 day) of the same compound?
A: 50 u/L

Q: What about the ALBUMIN (120 h, time 5 day) of the same compound?
A: 4.2 G/DL

Q: What about the “ALKALINE PHOSPHATASE” value (120 h, time 5 day) of the same compound?
A: 312.33 u/L

Q: What about the “ASPARTATE AMINOTRANSFERASE” value (120 h, time 5 day) of the same compound?
A: 77 u/L

Q: And the “BLOOD UREA NITROGEN” value (120 h, time 5 day)?
A: 17.33 mg/dL

Q: And the “CARBON DIOXIDE” value (120 h, time 5 day)?
A: 27 mmol/L

Q: What about the CHLORIDE (120 h, time 5 day) of the same compound?
A: 103.67 MEQ/L

Q: What about the CHOLESTEROL (120 h, time 5 day) of the same compound?
A: 66 mg/dL

Q: And the “CREATINE PHOSPHOKINASE” value (120 h, time 5 day)?
A: 146.67 u/L

Q: And the CREATININE (120 h, time 5 day)?
A: 0.2 mg/dL

Q: What about the GLUCOSE (120 h, time 5 day) of the same compound?
A: 146.33 mg/dL

Q: What about the “LACTATE DEHYDROGENASE” value (120 h, time 5 day) of the same compound?
A: 121 u/L

Q: What about the LIPASE (120 h, time 5 day) of the same compound?
A: 8.67 u/L

Q: What about the PHOSPHORUS (120 h, time 5 day) of the same compound?
A: 12.63 mg/dL

Q: What about the POTASSIUM (120 h, time 5 day) of the same compound?
A: 6.86 MEQ/L

Q: And the SODIUM (120 h, time 5 day)?
A: 148.7 MEQ/L

Q: What about the “TOTAL BILIRUBIN” value (120 h, time 5 day) of the same compound?
A: 0.2 mg/dL

Q: What about the “TOTAL PROTEIN” value (120 h, time 5 day) of the same compound?
A: 6 G/DL

Q: What about the “URIC ACID” value (120 h, time 5 day) of the same compound?
A: 1.4 mg/dL
